Source: patent US4089974A, “5-Carboxy-phenylenebis(carbonylimino)benzene carboxylic and dicarboxylic acids and salts” (American Cyanamid Company, priority 1977, dated 1978)
Structures can show the parent of a compound that is named as a salt.

Experiments:
[1] = tested on: hereditary angioneurotic edema; details: The New England Journal of Medicine, 286, 808-812 (1972); cited from earlier work
complement system = details: cited from earlier work; for anticomplementary effect: British Journal of Experimental Pathology, 33, 327-339 (1952)
human C1 = assay: Test, Code 026 (C1 inhibitor); type: biochemical
Source text: An active inhibitor protects C2 from C1 and C4; (ii) Test, Code 035 (C3-C9 inhibitor) -- This test determines the ability of the late components of human complement (C3-C9) to lyse EAC 142 in the presence of appropriate dilutions of the test compound. An active inhibitor protects EAC 142 from lysis by human C3-C9; (iii) Test, Code 036 (C-Shunt inhibitor) -- In this test human erythrocytes rendered fragile are lysed in autologous serum via the shunt pathway activated by cobra venom factor in the presence of appropriate dilutions of the test compound. Inhibition of the shunt pathway results in failure of lysis; (iv) Forssman Vasculitis Test -- Here, the well known complement dependent lesion, Forssman vasculitis, is produced in guinea pigs by intradermal injection of rabbit anti-Forssman antiserum. […]

[2] = tested on: Citrated sheep plasma (CSP); assay: in vitro anti-coagulant activity (AC), citrated sheep plasma clotting; type: biochemical
Method: The sheep RBC's, kept in suspension throughout the clotting incubation time, become enmeshed in the fibrin matrix if a clots forms. Upon centrifugation of the plate, untrapped RBC's form buttons, the sizes of which correspond to the degree of clot inhibition; this providing a measure of anti-coagulant activity (AC). Sodium heparin is used as a positive control and activity is reported in wells appearing in Table I.

[3] = Intrinsic Therapeutic Index (Code 026 versus AC); details: Table II
Source text: The computation of an Intrinsic Therapeutic Index (ITI) was devised to correlate the results, expressed in wells, obtained in the in vitro Code 026 (C1 inhibitor) test and the in vitro anti-coagulant (AC) test into a meaningful value which would aid in the net evaluation of the activity of the compounds of this invention.
The ITI of a given compound may be defined as the antilogarithm of the logarithmic (base 2) difference between the highest serial dilution in wells which is active in the Code 026 test and the highest serial dilution in wells providing activity in the anti-coagulant test. The ITI is thus a measure of the separation of anti-complement and anti-coagulant activities; the higher the numerical value the more therapeutically useful the separation of activities.

Molecule: NCCCCCC(=O)O [epsilon-aminocaproic acid]
- treatment of hereditary angioneurotic edema [1]: used with success

Molecule: Nc1ccc2cc(S(=O)(=O)O)cc(O)c2c1N=Nc1ccc(NC(=O)Nc2ccc(N=Nc3c(N)ccc4cc(S(=O)(=O)O)cc(O)c34)c(S(=O)(=O)O)c2)cc1S(=O)(=O)O [chlorazol fast pink, 3,3'-ureylenebis-[6-(2-amino-8-hydroxy-6-sulfo-1-naphthylazo)]benzenesulfonic acid, tetrasodium salt]
- anticomplementary effect (complement system): reported to have an anticomplementary effect

Molecule: O=C([O-])c1cc(C(=O)Nc2ccc(C(=O)[O-])c(C(=O)[O-])c2)cc(C(=O)Nc2ccc(C(=O)[O-])c(C(=O)[O-])c2)c1.[Na+].[Na+].[Na+].[Na+].[Na+] [4,4'-[5-Carboxy-1,3-phenylenebis(carbonylimino)]-diphthalic acid pentasodium salt]
- C1 026 Wells (human C1; Table I, two-fold serial dilution assay, higher well number indicates higher activity): +2 Wells
- Complement Inhibiting Activity (Wells) Code 026 (human C1; Table II, in vitro): +2 Wells
- AC Wells ([2]; Table I, two-fold serial dilution assay, sodium heparin positive control): ≤ -2 Wells
- Anti-Coagulant Activity (Wells) AC ([2]; Table II, in vitro): -2 Wells
- Intrinsic Therapeutic Index ([3]; antilogarithm of the logarithmic (base 2) difference): 16
- Logarithmic Difference Expressed as Wells ([3]; log base 2 difference, Code 026 minus AC): +4 Wells

Molecule: heparin
- anticomplementary effect (complement system): reported to have an anticomplementary effect

Molecule: NC[C@H]1CC[C@H](C(=O)O)CC1 [tranexamic acid]
- treatment of hereditary angioneurotic edema [1]: used with success

Molecule: Cc1ccc(C(=O)Nc2ccc(S(=O)(=O)O)c3cc(S(=O)(=O)O)cc(S(=O)(=O)O)c23)cc1NC(=O)c1cccc(NC(=O)Nc2cccc(C(=O)Nc3cc(C(=O)Nc4ccc(S(=O)(=O)O)c5cc(S(=O)(=O)O)cc(S(=O)(=O)O)c45)ccc3C)c2)c1 [Suramin, 8-(3-benzamido-4-methylbenzamido)naphthalene-1, -3,5-trisulfonic acid]
- treatment of hereditary angioneurotic edema [1]: used with success
- inhibition of the complement system (complement system; Clin. Exp. Immunol., 10, 127-138 (1972)): competitive inhibitor of the complement system
